According to patent US6858638B2, “Substituted indazoles, compositions containing them, method of production and use” (Aventis Pharma S.A., priority 2002, dated 2005):

Tests used:
Assay type in all cases: biochemical
[1] = biological target: T1, human FAK (Homo sapiens, UniProt Q05397); assay: FAK autophosphorylation inhibition, time resolved fluorescence (HTRF) assay; conditions: 10 μM (values without asterisk); for inhibition at 10 µM: read-out: FAK % inhib at 10 μM
T1 construct: The complete cDNA of human FAK; made in house; host or cells: baculovirus expression system (vector pFastBac HTc)
Description: The inhibitory activity of the compounds on FAK is determined by measuring the inhibition of the autophosphorylation of the enzyme using a time resolved fluorescence (HTRF) assay.
The complete cDNA of human FAK, the N-terminal end of which was labeled with histidine, was cloned into a baculovirus expression vector pFastBac HTc. The protein was expressed and purified to approximately 70% homogeneity.
The kinase activity is determined by incubating the enzyme (6.6 μg/ml) with various concentrations of test compound in a 50 mM Hepes buffer, pH=7.2, containing 10 mM MgCl2, 100 μM Na3VO4 and 15 μM d'ATP for 1 hour at 37° C. The enzyme reaction is stopped by adding Hepes buffer, pH=7.0, containing […], 133 mM EDTA and 0.1% BSA, and the labeling is carried out, over 1 to 2 hours at ambient temperature, by adding to this buffer an anti-Histidine antibody labeled with XL665 and a monoclonal antibody phosphospecific for tyrosine, conjugated to europium cryptate (Eu-K). The characteristics of the two fluorophores are available in G. Mathis et al., Anticancer Research, 1997, 17, pages 3011-3014. The transfer of energy from the excited europium cryptate to the XL665 acceptor is proportional to the degree of autophosphorylation of FAK. The long-lived signal specific for XL-665 is measured in a Packard Discovery plate counter. All the assays are carried out in duplicate and the mean of the two assays is calculated. The inhibition of the FAK autophosphorylation activity with compounds of the invention is expressed as percentage inhibition compared to a control whose activity is measured in the absence of test compound. The [signal at 665 nm/signal at 620 nm] ratio is used for the calculation of the % inhibition.

[2] = biological target: T2, human KDR enzyme (Homo sapiens, UniProt P35968); assay: KDR substrate (PLCγ) phosphorylation, scintillation assay; conditions: 10 μM; for inhibition at 10 µM: read-out: KDR % inhib at 10 μM
T2 construct: The cytoplasmic domain of the human KDR enzyme; GST; made in house; host or cells: SF21 insect cells (baculovirus)
Description: The inhibitory effect of the compounds is determined in an assay of substrate phosphorylation by the KDR enzyme in vitro using a scintillation technique (96-well plate, NEN).
The cytoplasmic domain of the human KDR enzyme was cloned in the form of a GST fusion into the baculovirus expression vector pFastBac. The protein was expressed in SF21 cells and purified to approximately 60% homogeneity.
The KDR kinase activity is measured in 20 mM MOPS, 10 mM MgCl2, 10 mM MnCl2, 1 mM DTT, 2.5 mM EGTA, 10 mM β-glycerophosphate, pH=7.2, in the presence of 10 mM MgCl2, 100 μM Na3VO4, 1 mM NaF. 10 μl of the compound are added to 70 μl of kinase buffer containing 100 ng of KDR enzyme at 4° C. The reaction is triggered by adding 20 μl of solution containing 2 μg of substrate (SH2-SH3 fragment of PLCγ expressed in the form of a GST fusion protein), 2 μCi γ^33P[ATP] and 2 μM cold ATP. After incubation for 1 hour at 37° C., the reaction is stopped by adding 1 volume (100 μl) of 200 mM EDTA. The incubation buffer is removed and the wells are washed three times with 300 μl of PBS. The radioactivity is measured in each well using Top Count NXT radioactivity counter (Packard).
The background noise is determined by measuring the radioactivity in four different wells containing the radioactive ATP and the substrate alone.
A control for total activity is measured in four different wells containing all the reagents (γ^33P-[ATP], KDR and PLCγ substrate) but in the absence of compound.
The inhibition of the KDR activity with the compound of the invention is expressed as percentage inhibition of the control activity determined in the absence of compound.
The compound SU5614 (Calbiochem) (1 μM) is included in each plate as an inhibition control.

[3] = biological target: T3, Aurora2 kinase (Homo sapiens, UniProt O14965); assay: Aurora2 kinase radioactivity scintillation assay using nickel chelate (NuMA substrate); conditions: 10 μM; for inhibition at 10 µM: read-out: Aurora2 % inhib at 10 μM
T3 construct: A complete recombinant Aurora2 enzyme; His tag (N); made in house; host or cells: E. coli
T3 sequence (O14965 1-403): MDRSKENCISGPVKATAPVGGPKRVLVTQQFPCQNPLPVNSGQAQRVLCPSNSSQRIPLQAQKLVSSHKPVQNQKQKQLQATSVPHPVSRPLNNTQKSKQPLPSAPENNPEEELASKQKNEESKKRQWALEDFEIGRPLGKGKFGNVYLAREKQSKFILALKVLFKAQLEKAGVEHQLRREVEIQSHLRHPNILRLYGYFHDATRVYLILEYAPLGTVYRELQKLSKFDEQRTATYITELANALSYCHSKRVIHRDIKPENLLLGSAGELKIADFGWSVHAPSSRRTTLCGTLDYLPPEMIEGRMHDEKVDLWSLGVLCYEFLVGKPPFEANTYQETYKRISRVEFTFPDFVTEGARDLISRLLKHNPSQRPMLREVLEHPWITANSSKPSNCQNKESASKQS
Description: The inhibitory effect of compounds with respect to the Aurora2 kinase is determined with a radioactivity scintillation assay using nickel chelate.
A complete recombinant Aurora2 enzyme, the N-terminal end of which was labeled with histidine, was expressed in E. coli and purified to a quality close to homogeneity.
The C-terminal fragment (Q1687-H2101) of a NuMA (Nuclear protein that associates with the Mitotic Apparatus) expressed in E. coli, and the N-terminal end of which was labeled with histidine, was purified by nickel chelate chromatography and used as substrate in the Aurora2 kinase assay. In order to determine the kinase activity, the NuMA substrate is equilibrated by chromatography on a Pharmacia PD10 column, in a buffer (50 mM Tris HCl, pH7.5, 50 mM NaCl, 10 mM MgCl2) to which 10% (v/v) of glycerol and 0.05% (w/v) of NP40 have been added.
The kinase acivitity of Aurora2 is measured by scintillation with nickel chelate (New England Nuclear, model SMP107). Each well contains 100 μl of the following solution: 0.02 μM of Aurora2; 0.5 μM of NuMA substrate; 1 μM of ATP to which 0.5 μCi of ATP-[^33P] has been added. The solutions are incubated for 30 minutes at 37° C. The assay buffer is then removed and the wells are rinsed twice with 300 μl of kinase buffer. The radioactivity is measured in each well using a Packard Model Top Count NXT device.
The background noise is deduced from the measurement of radioactivity by measuring, in duplicate, in wells containing the radioactive ATP alone containing buffered kinase treated in the same way as the other samples.
The activity of the control is determined by measuring, in duplicate, the radioactivity in the complete assay mixture (ATP, Aurora2 and the NuMA substrate) in the absence of test compound.
The inhibition of the Aurora2 with a compound of the invention is expressed as percentage inhibition of the control activity in the absence of test compound. Staurosporine is added to each plate as an inhibition control.

[4] = biological target: T4, human IGF1R cytoplasmic domain (Homo sapiens, UniProt P08069); assay: IGF1R autophosphorylation inhibition, time resolved fluorescence (HTRF) assay; conditions: 10 μM; for inhibition at 10 µM: read-out: IGF1R % inhib at 10 μM
T4 construct: The human IGF1R cytoplasmic domain was cloned; made in house; host or cells: SF21 insect cells (baculovirus)
Description: The inhibitory activity of the compounds on IGF1R is determined by measuring the inhibition of the autophosphorylation of the enzyme using a time resolved fluorescence (HTRF) assay.
The human IGF1R cytoplasmic domain was cloned, as a fusion with glutathione S-transferase (GST), into the baculovirus expression vector pFastBac-GST. The protein was expressed in SF21 cells and purified to approximately 80% homogeneity.
The kinase activity was determined by incubating the enzyme with various concentrations of test compound in a 50 mM Hepes buffer, pH 7.5, containing 5 mM MnCl2, 50 mM NaCl, 3% glycerol, 0.025% Tween […] of ATP. The enzyme reaction is stopped by adding 100 mM Hepes buffer, pH 7.0, containing 0.4 M KF, 133 mM EDTA and 0.1% BSA containing an anti-GST antibody labeled with XL665 and an antiphosphotyrosine antibody conjugated to europium cryptate (Eu-K). The characteristics of the two fluorophores, XL-665 and Eu-K, are available in G. Mathis et al., Anticancer Research, 1997, 17, pages 3011-3014. The transfer of energy from the excited europium cryptate to the acceptor XL665 is proportional to the degree of autophosphorylation of IGF1R. The long-lived signal specific for XL-665 is measured in a Victor analyzer plate counter (Perkin-elmer). The inhibition of the IGF1R autophosphorylation activity with compounds of the invention is expressed as percentage inhibition compared to a control whose activity is measured in the absence of test compound.

T4 sequence (P08069 960-1367 limits assumed): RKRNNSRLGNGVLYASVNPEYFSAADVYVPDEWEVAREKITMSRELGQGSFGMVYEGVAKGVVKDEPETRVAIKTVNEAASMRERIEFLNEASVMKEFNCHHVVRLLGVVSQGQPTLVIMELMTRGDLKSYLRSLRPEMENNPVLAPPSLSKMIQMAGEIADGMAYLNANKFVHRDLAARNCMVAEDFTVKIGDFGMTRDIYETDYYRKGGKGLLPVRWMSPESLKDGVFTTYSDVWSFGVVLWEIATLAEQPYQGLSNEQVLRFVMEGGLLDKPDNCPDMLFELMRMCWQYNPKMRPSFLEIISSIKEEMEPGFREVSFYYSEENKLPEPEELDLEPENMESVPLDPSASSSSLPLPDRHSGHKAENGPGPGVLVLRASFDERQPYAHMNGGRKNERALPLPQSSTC
T2 sequence (P35968 786-1356 limits assumed): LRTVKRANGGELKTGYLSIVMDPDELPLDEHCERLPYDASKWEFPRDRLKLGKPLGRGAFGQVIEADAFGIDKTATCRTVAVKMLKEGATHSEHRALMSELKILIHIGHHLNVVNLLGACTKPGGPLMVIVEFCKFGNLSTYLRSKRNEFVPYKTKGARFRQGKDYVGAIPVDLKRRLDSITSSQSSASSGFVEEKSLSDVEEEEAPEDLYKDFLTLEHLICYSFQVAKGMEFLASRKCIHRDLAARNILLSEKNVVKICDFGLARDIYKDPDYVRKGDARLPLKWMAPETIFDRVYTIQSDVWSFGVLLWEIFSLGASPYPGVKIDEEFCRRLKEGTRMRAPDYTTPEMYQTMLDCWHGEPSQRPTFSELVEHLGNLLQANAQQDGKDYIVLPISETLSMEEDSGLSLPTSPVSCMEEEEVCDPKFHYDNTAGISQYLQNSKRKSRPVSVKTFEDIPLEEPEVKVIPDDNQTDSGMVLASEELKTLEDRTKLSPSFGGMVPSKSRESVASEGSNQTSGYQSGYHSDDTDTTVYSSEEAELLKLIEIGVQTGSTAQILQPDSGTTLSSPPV
T1 sequence (Q05397 whole entry): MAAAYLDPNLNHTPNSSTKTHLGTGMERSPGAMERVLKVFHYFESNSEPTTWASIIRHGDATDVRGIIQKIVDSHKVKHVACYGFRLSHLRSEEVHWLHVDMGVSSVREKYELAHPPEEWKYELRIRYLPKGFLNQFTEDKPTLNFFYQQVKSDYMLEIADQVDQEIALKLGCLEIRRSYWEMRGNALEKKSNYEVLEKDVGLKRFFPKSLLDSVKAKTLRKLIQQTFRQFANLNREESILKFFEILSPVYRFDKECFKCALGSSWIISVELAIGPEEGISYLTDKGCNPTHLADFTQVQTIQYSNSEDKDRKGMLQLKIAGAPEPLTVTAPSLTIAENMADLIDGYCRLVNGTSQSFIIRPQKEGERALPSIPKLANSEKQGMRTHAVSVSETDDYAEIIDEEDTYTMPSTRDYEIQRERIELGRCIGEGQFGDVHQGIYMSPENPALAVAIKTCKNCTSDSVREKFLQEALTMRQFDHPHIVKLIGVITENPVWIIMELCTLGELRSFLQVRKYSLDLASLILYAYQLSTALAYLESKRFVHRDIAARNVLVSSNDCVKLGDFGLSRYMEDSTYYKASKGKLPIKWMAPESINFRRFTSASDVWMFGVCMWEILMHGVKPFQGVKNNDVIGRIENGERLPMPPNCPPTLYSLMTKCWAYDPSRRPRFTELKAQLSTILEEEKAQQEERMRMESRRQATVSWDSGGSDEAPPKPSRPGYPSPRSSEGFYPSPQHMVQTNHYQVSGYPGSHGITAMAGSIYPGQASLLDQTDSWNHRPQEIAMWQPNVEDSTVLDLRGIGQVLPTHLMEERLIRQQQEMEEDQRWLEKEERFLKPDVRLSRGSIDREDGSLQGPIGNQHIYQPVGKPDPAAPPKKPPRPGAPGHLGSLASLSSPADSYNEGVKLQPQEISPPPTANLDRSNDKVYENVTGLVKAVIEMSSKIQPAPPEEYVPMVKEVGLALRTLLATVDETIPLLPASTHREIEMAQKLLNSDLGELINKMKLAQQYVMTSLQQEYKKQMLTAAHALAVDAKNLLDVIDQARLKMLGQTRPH

| Structure (SMILES) | inhibition at 10 µM [1] | inhibition at 10 µM [2] | inhibition at 10 µM [3] | inhibition at 10 µM [4] | FAK % inhib at 10 μM [1] | KDR % inhib at 10 μM [2] | Aurora2 % inhib at 10 μM [3] | IGF1R % inhib at 10 μM [4] |
| --- | --- | --- | --- | --- | --- | --- | --- | --- |
| CS(=O)(=O)c1ccccc1S(=O)(=O)Nc1ccc2[nH]nc(C(=O)NC3CCCCC3)c2c1 [Example 29, N-Cyclohexyl-5-(2-methylsulfonylbenzenesulfonylamino)-1H-indazole-3-carboxamide] | 0% | 8% | 80% | 96% | – | – | – | – |
| O=S(=O)(Nc1ccc2[nH]nc(-c3ccc(O)cc3)c2c1)c1ccccc1 [Example 34, N-[3-(4-Hydroxyphenyl)-1H-indazol-5-yl]benzenesulfonamide] | 87% | 96% | 100% | 89% | – | – | – | – |
| CS(=O)(=O)c1ccccc1S(=O)(=O)Nc1ccc2[nH]nc(-c3ccc(O)cc3)c2c1 [Example 35, N-[3-(4-Hydroxyphenyl)-1H-indazol-5-yl]-2-methylsulfonylbenzenesulfonamide] | – | – | – | – | 97% | 80% | 94% | 94% |
| CC(=O)Nc1n[nH]c2ccc(NS(=O)(=O)c3ccccc3S(C)(=O)=O)cc12 [Example 43, N-[5-(2-Methylsulfonylbenzenesulfonylamino)-1H-indazol-3-yl)-acetamide] | 83% | 25% | 85% | 96% | – | – | – | – |
| CC(=O)Nc1n[nH]c2ccc(NS(=O)(=O)c3cc(F)cc(F)c3)cc12 [Example 44, N-[5-(3,5-Difluorobenzenesulfonylamino)-1H-indazol-3-yl]acetamide] | 95% | 37% | – | 82% | – | – | – | – |
| CS(=O)(=O)c1ccccc1S(=O)(=O)Nc1ccc2[nH]nc(NC(=O)c3ccccc3)c2c1 [Example 45, N-[5-(2-Methylsulfonylbenzenesulfonylamino)-1H-indazol-3-yl]benzamide] | 100% | 55% | 95% | 95% | – | – | – | – |
| O=C(Nc1n[nH]c2ccc(NS(=O)(=O)c3cc(F)cc(F)c3)cc12)c1ccccc1 [Example 46, N-[5-(3,5-Difluorobenzenesulfonylamino)-1H-indazol-3-yl]benzamide] | 90% | 82% | 95% | 82% | – | – | – | – |
| CS(=O)(=O)c1ccccc1S(=O)(=O)Nc1ccc2[nH]nc(-c3ccccc3N)c2c1 [Example 49, N-[3-(2-Aminophenyl)-1H-indazol-5-yl]-2-methylsulfonylbenzenesulfonamide] | 40% | 18% | 17% | 50% | – | – | – | – |
| CS(=O)(=O)c1ccccc1S(=O)(=O)Nc1ccc2[nH]nc(-c3cc4cccnc4[nH]3)c2c1 [Example 57, 2-Methylsulfonyl-N-[3-(1H-pyrrolo[2,3-b]pyridin-2-yl)-1H-indazol-5-yl]benzenesulfonamide] | 48% | 22% | 53% | 0% | – | – | – | – |
| COc1ccc2[nH]c(-c3n[nH]c4ccc(NS(=O)(=O)c5ccccc5S(C)(=O)=O)cc34)cc2c1 [Example 58, 2-Methylsulfonyl-N-[3-(5-methoxy-1H-indol-2-yl)-1H-indazol-5-yl]benzenesulfonamide] | 97% | 97% | 100% | 100% | – | – | – | – |
| CS(=O)(=O)c1ccccc1S(=O)(=O)Nc1ccc2[nH]nc(-c3cccnc3)c2c1 [Example 59, 2-Methylsulfonyl-N-(3-pyridin-3-yl-1H-indazol-5-yl)benzenesulfonamide] | 95% | 40% | 100% | 88% | – | – | – | – |
| CS(=O)(=O)c1ccccc1S(=O)(=O)Nc1ccc2[nH]nc(-c3ccc(C(=O)O)cc3)c2c1 [Example 69, 4-[5-(2-Methylsulfonylbenzenesulfonamino)-1H-indazol-3-yl]benzoic acid] | 98% | 73% | 99% | 61% | – | – | – | – |
